Like-named read-outs stand apart in the source and are kept apart here.
Conditions: for ϕ (quantum yield): pH 7.4
[1] = spirolactone dyes, table title says PBS, text (b560-b564) says maximal ε when ring-opened in EtOH/0.1% TFA
[2] = spirolactone dyes, ϕ in PBS × ε in EtOH/0.1% TFA

SMILES | Brightness (ϕ × ε) (PBS) | Em (nm) (PBS) | Ex (nm) (PBS) | ε (M^−1 cm^−1) (PBS) | ϕ (quantum yield) (PBS) | ε (M^−1 cm^−1) [1] | also measured
Cc1ccccc1C1=c2cc3c(cc2[Si](c2ccccc2)(c2ccccc2)c2cc4c(cc21)CCN4C)=[N+](C)CC3 [Compound 022, 1,9-Dimethyl-11,11-diphenyl-5-(o-tolyl)-2,3,7,8,9,11-hexahydrosilino[3,2-f:5,6-f′]diindol-1-ium] | 12,870 | 737 | 710 | 117,000 M^−1 cm^−1 | 0.11 | – | –
Cc1ccccc1C1=c2cc3c(cc2[Si](C)(CCCCl)c2cc4c(cc21)CCN4C)=[N+](C)CC3 (centres unmarked) [Compound 023, 11-(3-Chloropropyl)-1,9,11-trimethyl-5-(o-tolyl)-2,3,7,8,9,11-hexahydrosilino[3,2-f:5,6-f]diindol-1-ium] | 21,947 | 717 | 693 | 129,100 M^−1 cm^−1 | 0.17 | – | –
Cc1ccccc1C1=C2C=CC(=[N+]3CCC3)C=C2[Si](C)(C)c2cc(N3CCC3)ccc21 [Compound 024, 1-(7-(Azetidin-l-yl)-5,5-dimethyl-10-(o-tolyl)dibenzo[b,e]silin-3(5H)-ylidene)azetidin-1-ium, reference compound] | 55,460 | 663 | 649 | 118,000 M^−1 cm^−1 | 0.47 | – | –
Cc1ccccc1C1=C2C=CC(=[N+]3CCC3)C=C2[Si](c2ccccc2)(c2ccccc2)c2cc(N3CCC3)ccc21 [Compound 025, 1-(7-(Azetidin-1-yl)-5,5-diphenyl-10-(o-tolyl)dibenzo[b,e]silin-3(5H)-ylidene)azetidin-1-ium] | 63,222 | 680 | 663 | 154,200 M^−1 cm^−1 | 0.41 | – | –
C=C[Si]1(C=C)C2=CC(=[N+]3CCC3)C=CC2=C(c2ccccc2C)c2ccc(N3CCC3)cc21 [Compound 026, 1-(7-(Azetidin-1-yl)-10-(o-tolyl)-5,5-divinyldibenzo[b,e]silin-3(5H)-ylidene)azetidin-1-ium] | 48,268 | 673 | 658 | 109,700 M^−1 cm^−1 | 0.44 | – | –
Cc1ccccc1C1=C2C=CC(=[N+]3CCC3)C=C2[Si](C)(CCCCl)c2cc(N3CCC3)ccc21 (centres unmarked) [Compound 027, 1-(7-(Azetidin-1-yl)-5-(3-chloropropyl)-5-methyl-10-(o-tolyl)dibenzo[b,e]silin-3(5H)-ylidene)azetidin-1-ium] | 81,683 | 668 | 651 | 166,700 M^−1 cm^−1 | 0.49 | – | quantum yield (EtOH/0.1% TFA, mix of two isomers): 0.61; extinction coefficient (measured in PBS, mix of two isomers): ~4,000; emission (mix of two isomers): 670 nm; excitation wavelength (mix of two isomers): 653 nm
COc1cccc(OC)c1C1=C2C=CC(=[N+]3CCC3)C=C2[Si](C)(CCCCl)c2cc(N3CCC3)ccc21 (centres unmarked) [Compound 029, 1-(7-(Azetidin-1-yl)-5-(3-chloropropyl)-10-(2,6-dimethoxyphenyl)-5-methyldibenzo[b,e]silin-3(5H)-ylidene)azetidin-1-ium] | 86,400 | 670 | 653 | 180,000 M^−1 cm^−1 | 0.48 | – | –
COc1cccc(OC)c1C1=C2C=CC(=[N+](C)C)C=C2[Si](C)(CCCCl)c2cc(N(C)C)ccc21 (centres unmarked) [Compound 030, N-(5-(3-Chloropropyl)-10-(2,6-dimethoxyphenyl)-7-(dimethylamino)-5-methyldibenzo[b,e]silin-3(5H)-ylidene)-N-methylmethanaminium] | 76,000 | 673 | 655 | 200,000 M^−1 cm^−1 | 0.38 | – | –
O=C1OC2(c3ccccc31)c1ccc(N3CCC3)cc1[Si](c1ccccc1)(c1ccccc1)c1cc(N3CCC3)ccc12 [Compound 033, 3,7-Di(azetidin-1-yl)-5,5-diphenyl-3′H,5H-spiro[dibenzo[b,e]siline-10,1′-isobenzofuran]-3′-one] | – | – | – | – | – | 80,000 M^−1 cm^−1 | extinction coefficient (maximum) in EtOH/0.1% TFA (EtOH/0.1% TFA): 80,000 M−1 cm−1; Em (nm) (SDS): 681 nm; Ex (nm) (SDS): 664 nm; extinction coefficient in anhydrous EtOH/0.1% TFA (anhydrous EtOH/0.1% TFA): ~124 000 M−1 cm-1
C[Si@]1(CCCCl)c2cc(N3CCC3)ccc2[C@@]2(OC(=O)c3ccccc32)c2ccc(N3CCC3)cc21 [Compound 035, (5s,10s)-3,7-Di(azetidin-1-yl)-5-(3-chloropropyl)-5-methyl-3′H,5H-spiro[dibenzo[b,e]siline-10,1′-isobenzofuran]-3′-one] | – | 666 | 648 | – | – | 183,000 M^−1 cm^−1 | –
C[Si@]1(CCCCl)c2cc(N3CCC3)ccc2[C@]2(OC(=O)c3ccccc32)c2ccc(N3CCC3)cc21 [Compound 036, (5r,10r)-3,7-Di(azetidin-1-yl)-5-(3-chloropropyl)-5-methyl-3′H,5H-spiro[dibenzo[b,e]siline-10,1′-isobenzofuran]-3′-one] | – | 666 | 648 | – | 0.53 | 213,200 M^−1 cm^−1 | –
CN(C)c1ccc2c(c1)[Si@](C)(CCCCl)c1cc(N(C)C)ccc1[C@]21OC(=O)c2ccccc21 [Compound 037, (5s,10s)-5-(3-Chloropropyl)-3,7-bis(dimethylamino)-5-methyl-3′H,5H-spiro[dibenzo[b,e]siline-10,1′-isobenzofuran]-3′-one] | – | 665 | 650 | – | 0.40 | 200,000 M^−1 cm^−1 | extinction coefficient (maximum) in EtOH/0.1% TFA (EtOH/0.1% TFA): ~200,000 M−1 cm−1; Brightness (ϕ × ε) [2]: 80,000; overall brightness (ϕ in PBS × ε in EtOH/0.1% TFA): ~80,000 M−1 cm−1
CN(C)c1ccc2c(c1)[Si@](C)(CCCCl)c1cc(N(C)C)ccc1[C@@]21OC(=O)c2ccccc21 [Compound 038, (5r,10r)-5-(3-Chloropropyl)-3,7-bis(dimethylamino)-5-methyl-3′H,5H-spiro[dibenzo[b,e]siline-10,1′-isobenzofuran]-3′-one] | – | 665 | 650 | – | 0.40 | 200,000 M^−1 cm^−1 | extinction coefficient (maximum) in EtOH/0.1% TFA (EtOH/0.1% TFA): ~200,000 M−1 cm−1; Brightness (ϕ × ε) [2]: 80,000; overall brightness (ϕ in PBS × ε in EtOH/0.1% TFA): ~80,000 M−1 cm−1
CCOC(=O)CSCCC[Si@]1(C)c2cc(N(C)C)ccc2[C@]2(OC(=O)c3ccccc32)c2ccc(N(C)C)cc21 [Compound 042, Ethyl 2-((3-((5s,10s)-3,7-bis(dimethylamino)-5-methyl-3′-oxo-3′H,5H-spiro[dibenzo[b,e]siline-10,1′-isobenzofuran]-5-yl)propyl)thio)acetate] | – | 665 | 645 | – | 0.45 | 145,800 M^−1 cm^−1 | –
CCOC(=O)CSCCC[Si@]1(C)c2cc(N(C)C)ccc2[C@@]2(OC(=O)c3ccccc32)c2ccc(N(C)C)cc21 [Compound 043, Ethyl 2-((3-((5r,10r)-3,7-bis(dimethylamino)-5-methyl-3′-oxo-3′H,5H-spiro[dibenzo[b,e]siline-10,1′-isobenzofuran]-5-yl)propyl)thio)acetate] | – | 665 | 646 | – | 0.45 | 150,700 M^−1 cm^−1 | –
CN(C)c1ccc2c(c1)[Si@](C)(CCCI)c1cc(N(C)C)ccc1[C@]21OC(=O)c2ccccc21 [Compound 047, (5s,10s)-3,7-Bis(dimethylamino)-5-(3-iodopropyl)-5-methyl-3′H,5H-spiro[dibenzo[b,e]siline-10,1′-isobenzofuran]-3′-one] | – | 665 | 645 | – | 0.43 | 115,000 M^−1 cm^−1 | –
CN(C)c1ccc2c(c1)[Si@](C)(CCCI)c1cc(N(C)C)ccc1[C@@]21OC(=O)c2ccccc21 [Compound 048, (5r,10r)-3,7-Bis(dimethylamino)-5-(3-iodopropyl)-5-methyl-3′H,5H-spiro[dibenzo[b,e]siline-10,1′-isobenzofuran]-3′-one] | – | 665 | 645 | – | 0.45 | 144,000 M^−1 cm^−1 | –
CN(C)c1ccc2c(c1)[Si@](C)(CCCN=[N+]=[N-])c1cc(N(C)C)ccc1[C@]21OC(=O)c2ccccc21 [Compound 053, (5s,10s)-5-(3-Azidopropyl)-3,7-bis(dimethylamino)-5-methyl-3′H,5H-spiro[dibenzo[b,e]siline-10,1′-isobenzofuran]-3′-one] | – | 666 | 645 | – | 0.43 | 206,700 M^−1 cm^−1 | –
CN(C)c1ccc2c(c1)[Si@](C)(CCCN=[N+]=[N-])c1cc(N(C)C)ccc1[C@@]21OC(=O)c2ccccc21 [Compound 054, (5r,10r)-5-(3-Azidopropyl)-3,7-bis(dimethylamino)-5-methyl-3′H,5H-spiro[dibenzo[b,e]siline-10,1′-isobenzofuran]-3′-one] | – | 665 | 645 | – | 0.44 | 218,400 M^−1 cm^−1 | –
CN(C)c1ccc2c(c1)[Si@](C)(CCCSCC(=O)O)c1cc(N(C)C)ccc1[C@]21OC(=O)c2ccccc21 [Compound 063, 2-((3-((5s,10s)-3,7-Bis(dimethylamino)-5-methyl-3′-oxo-3′H,5H-spiro[dibenzo[b,e]siline-10,1′-isobenzofuran]-5-yl)propyl)thio)acetic acid] | – | 665 | 645 | – | 0.45 | 180,600 M^−1 cm^−1 | –
